Laboratory results as given in US20240158446A1, “CYCLIC COMPOUND HAVING SELECTIVE INHIBITORY ACTION ON KRAS OVER HRAS AND NRAS” (CHUGAI SEIYAKU KABUSHIKI KAISHA, priority 2021, published 2024).
Where two headings read alike, the source gives them in different places. Where a SMILES comes first, the peptide text is derived from it. Bridges are numbered along the chain shown (N, C = ends). [ ]: non-standard residue; d: D form. The star is where a group is joined. hPhe(3-Cl-4-CF3) = N[C@@H](CCc1ccc(C(F)(F)F)c(Cl)c1)C(=O)O; NPrPhe(4-CF3) = CCCN[C@@H](Cc1ccc(C(F)(F)F)cc1)C(=O)O; 3Oxa8azabicyclo(3.2.1)octane = C1CC2COCC1N2*; NMeGly(cPent) = CN[C@H](C(=O)O)C1CCCC1; NMeD = CN[C@@H](CC(=O)O)C(=O)O; NMeL = CN[C@@H](CC(C)C)C(=O)O; Ac5c = NC1(C(=O)O)CCCC1; Sar = CNCC(=O)O

What was measured:
[1] = system: human lung cancer strain NCI-H441; experiment: cells; conditions: NCI-H441, 96 h, read-out: NCI-H441 IC50 (nM), NCI-H441 cell proliferation, 4 days, CellTiter-Glo;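 note: cell proliferation inhibition after four days measured by CellTiter-Glo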
[2] = biological target: GDP-bound NRAS wild-type protein (Homo sapiens, UniProt P01111); experiment: Binding to NRAS by surface plasmon resonance (SPR), Single Cycle Kinetics; conditions: for NRAS/KRAS (ratio of KD value with respect to GDP-bound NRAS wild-type protein to KD value with respect to KRAS): SPR KD ratio NRAS/KRAS, class symbols; for NRAS/KRAS (ratio of KD value for NRAS to KD value for KRAS): SPR, GDP-bound NRAS wild-type protein vs GDP-bound KRAS wild-type protein
[3] = biological target: GDP-bound KRAS wild-type protein (Homo sapiens, UniProt P01116); experiment: Binding to KRAS by surface plasmon resonance (SPR), Single Cycle Kinetics; conditions: GDP-bound KRAS wild-type protein, read-out: KRAS KD
[4] = biological target: GDP-bound HRAS wild-type protein (Homo sapiens, UniProt P01112); experiment: Binding to HRAS by surface plasmon resonance (SPR), Single Cycle Kinetics; conditions: for HRAS/KRAS (ratio of KD value with respect to GDP-bound HRAS wild-type protein to KD value with respect to KRAS): SPR KD ratio HRAS/KRAS, class symbols; for HRAS/KRAS (ratio of KD value for HRAS to KD value for KRAS): SPR, GDP-bound HRAS wild-type protein vs GDP-bound KRAS wild-type protein
[5] = system: human lung cancer strain NCI-H441;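 note: cell proliferation inhibition after four days measured by CellTiter-Glo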
[6] = SPR Single Cycle Kinetics, 1:1 binding model

GDP-bound KRAS wild-type protein, sequence (P01116 whole entry): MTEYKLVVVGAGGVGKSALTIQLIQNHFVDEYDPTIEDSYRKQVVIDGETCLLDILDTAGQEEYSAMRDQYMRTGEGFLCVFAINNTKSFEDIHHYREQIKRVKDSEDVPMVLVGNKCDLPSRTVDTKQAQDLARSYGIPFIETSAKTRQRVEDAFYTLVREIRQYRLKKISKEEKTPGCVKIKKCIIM
GDP-bound NRAS wild-type protein, sequence (P01111 whole entry): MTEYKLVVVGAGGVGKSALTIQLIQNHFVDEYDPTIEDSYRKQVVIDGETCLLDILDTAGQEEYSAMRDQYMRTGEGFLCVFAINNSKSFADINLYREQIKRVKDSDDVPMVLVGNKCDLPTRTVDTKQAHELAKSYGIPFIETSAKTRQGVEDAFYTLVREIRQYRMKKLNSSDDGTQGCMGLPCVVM
GDP-bound HRAS wild-type protein, sequence (P01112 whole entry): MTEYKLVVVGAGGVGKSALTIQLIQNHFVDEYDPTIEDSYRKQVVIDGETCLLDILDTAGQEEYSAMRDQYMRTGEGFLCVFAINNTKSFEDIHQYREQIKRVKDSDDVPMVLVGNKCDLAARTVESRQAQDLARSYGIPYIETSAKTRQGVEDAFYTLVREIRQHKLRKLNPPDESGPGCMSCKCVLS

| IC50 [1] [nM] | Kd [3, 6] [nM] | IC50 [5] [nM] | Kd ([3]; SPR, Single Cycle Kinetics) [nM] | SMILES | NRAS/KRAS (ratio of KD value with respect to GDP-bound NRAS wild-type protein to KD value with respect to KRAS) [2] | HRAS/KRAS (ratio of KD value with respect to GDP-bound HRAS wild-type protein to KD value with respect to KRAS) [4] | NRAS/KRAS (ratio of KD value for NRAS to KD value for KRAS) [2] | HRAS/KRAS (ratio of KD value for HRAS to KD value for KRAS) [4] |
| --- | --- | --- | --- | --- | --- | --- | --- | --- |
| 18.4 | – | – | – | CC[C@H](C)[C@@H]1NC(=O)[C@H](CC(F)F)N(C)C(=O)C[C@@H](C(=O)N(C)C)N(C)C(=O)[C@H](C2CCCC2)N(C)C(=O)C2(CC(C)(C)C2)NC(=O)[C@@H]2C[C@@H](C)CN2C(=O)[C@H](CCc2ccc(C(F)(F)F)c(OC)c2)NC(=O)CN(C)C(=O)[C@H](Cc2ccc(C)cc2)N2CC/C=C\C[C@@H](C2=O)N(C)C(=O)CN(C)C1=O [PP1877] | – | – | – | – |
| 30.4 | – | – | – | CC[C@H](C)[C@@H]1NC(=O)[C@H](CC)N(C)C(=O)C[C@@H](C(=O)N(C)CC)N(C)C(=O)[C@H](C2CCCC2)N(C)C(=O)C2(CCC2)NC(=O)[C@@H]2C[C@H](C)CN2C(=O)[C@H](CCc2ccc(C(F)(F)F)c(OC)c2)NC(=O)CN(C)C(=O)[C@H](Cc2ccc(C)cc2)N2CC/C=C\C[C@@H](C2=O)N(C)C(=O)CN(C)C1=O [PP1853] | – | – | – | – |
| – | 0.29 | 13.1 | – | CC[C@H](C)[C@@H]1NC(=O)[C@H](COC)N(C)C(=O)C[C@@H](C(=O)N(C)C)N(C)C(=O)[C@H](C2CCCCC2)N(C)C(=O)C2(CC(C)(C)C2)NC(=O)[C@@H]2C[C@@H](OC(C)C)CN2C(=O)[C@H](CCc2ccc(Cl)c(Cl)c2)NC(=O)CN(C)C(=O)[C@H](Cc2ccc(C(F)(F)F)cc2)N2CC/C=C\C[C@@H](C2=O)N(C)C(=O)CN(C)C1=O [PP2662] | AA (a compound having 20 or more is denoted as AA) | A (a compound having 10 or more and less than 20 is denoted as A) | – | – |
| – | – | 18.8 | 1.1 | CCO[C@@H]1C[C@H]2C(=O)NC3(CC(C)(C)C3)C(=O)N(C)[C@@H](C(CC)CC)C(=O)N(C)[C@H](C(=O)N(C)C)CC(=O)N(C)[C@@H](COC)C(=O)N[C@@H]([C@@H](C)CC)C(=O)N(C)CC(=O)N(C)[C@H]3C/C=C\CCN(C3=O)[C@@H](CC3CCCCC3)C(=O)N(C)CC(=O)N[C@@H](CCc3cc(F)c(C(F)(F)F)c(F)c3)C(=O)N2C1 [PP2456] | – | – | A (a compound having 10 or more and less than 20 is denoted as A) | A (a compound having 10 or more and less than 20 is denoted as A) |
| – | – | 4.8 | 0.28 | CCC[C@H]1C(=O)N[C@@H]([C@@H](C)CC)C(=O)N(C)CC(=O)N(C)[C@H]2C/C=C\CCN(C2=O)[C@@H](CC2CCC(F)(F)CC2)C(=O)N(C)CC(=O)N[C@@H](CCc2ccc(C(F)(F)F)c(OC)c2)C(=O)N2C[C@@H](C)C[C@H]2C(=O)N(C)C2(CCC2)C(=O)N(C)[C@@H](C2CCCC2)C(=O)N(C)[C@H](C(=O)N(C)C)CC(=O)N1C [PP2376] | – | – | A (a compound having 10 or more and less than 20 is denoted as A) | A (a compound having 10 or more and less than 20 is denoted as A) |
| – | 0.87 | 22.1 | – | CCC[C@H]1C(=O)N[C@@H]([C@@H](C)CC)C(=O)N(C2CC2)CC(=O)N(C)[C@H]2C/C=C\CCN(C2=O)[C@@H](Cc2ccc(C(F)(F)F)cc2)C(=O)N(C)CC(=O)N[C@@H](CCc2ccc(Cl)c(Cl)c2)C(=O)N2C[C@H](OCC)C[C@H]2C(=O)NC2(CC(C)(C)C2)C(=O)N(C)[C@@H](CC(C)(C)C)C(=O)N(C)[C@H](C(=O)N(C)C)CC(=O)N1C [PP2749] | AA (a compound having 20 or more is denoted as AA) | A (a compound having 10 or more and less than 20 is denoted as A) | – | – |
| – | 0.91 | 103 | – | CCC[C@H]1C(=O)N[C@@H]([C@@H](C)CC)C(=O)N(C2CC2)CC(=O)N(C)[C@H]2C/C=C\CCN(C2=O)[C@@H](Cc2ccc(C)cc2)C(=O)N(C)CC(=O)N[C@@H](CCc2ccc(Cl)c(Cl)c2)C(=O)N2C[C@H](OCC)C[C@H]2C(=O)NC2(CC(C)(C)C2)C(=O)N(C)[C@@H](C2CCCC2)C(=O)N(C)[C@H](C(=O)N(C)C)CC(=O)N1C [PP2559] | A (a compound having 10 or more and less than 20 is denoted as A) | A (a compound having 10 or more and less than 20 is denoted as A) | – | – |
| – | – | 18.4 | 0.032 | CC[C@H](C)[C@@H]1NC(=O)[C@H](CC(C)C)N(C)C(=O)C[C@@H](C(=O)N2CCOCC2)N(C)C(=O)[C@H](C2CCCC2)N(C)C(=O)C2(CCC2)NC(=O)[C@@H]2C[C@@H](OCC(C)C)CN2C(=O)[C@H](CCc2cc(F)c(C(F)(F)F)c(F)c2)NC(=O)CN(C)C(=O)[C@H](Cc2ccc(C(F)(F)F)cc2)N2CCCC[C@@H](C2=O)N(C)C(=O)CN(C)C1=O [PP1160] | – | – | B (a compound having 3 or more and less than 10 is denoted as B) | B (a compound having 3 or more and less than 10 is denoted as B) |

| SMILES | IC50 [1] [nM] | Kd [3, 6] [nM] | IC50 [5] [nM] | Kd ([3]; SPR, Single Cycle Kinetics) [nM] | NRAS/KRAS (ratio of KD value with respect to GDP-bound NRAS wild-type protein to KD value with respect to KRAS) [2] | HRAS/KRAS (ratio of KD value with respect to GDP-bound HRAS wild-type protein to KD value with respect to KRAS) [4] | NRAS/KRAS (ratio of KD value for NRAS to KD value for KRAS) [2] | HRAS/KRAS (ratio of KD value for HRAS to KD value for KRAS) [4] |
| --- | --- | --- | --- | --- | --- | --- | --- | --- |
| CCCN1C(=O)CN(C)C(=O)CN(C)C(=O)[C@H]([C@@H](C)CC)NC(=O)[C@H](CC(C)C)N(C)C(=O)C[C@@H](C(=O)N2C3CCC2COC3)N(C)C(=O)[C@H](C2CCCC2)N(C)C(=O)C2(CCCC2)NC(=O)[C@@H]2CCCN2C(=O)[C@H](CCc2ccc(C(F)(F)F)c(Cl)c2)NC(=O)CN(C)C(=O)[C@@H]1Cc1ccc(C(F)(F)F)cc1 [PP0173] ([NMeL]I[Sar][Sar][NPrPhe(4-CF3)][Sar][hPhe(3-Cl-4-CF3)]P[Ac5c][NMeGly(cPent)][NMeD]-{3Oxa8azabicyclo(3.2.1)octane}; lactam N-11) | – | 0.67 | 11.6 | – | – | – | B (a compound having 3 or more and less than 10 is denoted as B) | C (A compound having a KD ratio of 0.1 or more and less than 3 is denoted as C) |
